Assays:
Mdr2-/- mice = assay: Mdr2-/- mouse model of PSC with established liver fibrosis, oral treatment; format: in vivo; conditions: 4 weeks
From the text: 20 Mdr2^−/− mice (10 males, 10 females) approximately 7 months old with established liver fibrosis were assigned to receive either F-4N or vehicle ([…]) for 4 weeks. At the end of treatment, mice were sacrificed, and livers were collected to assess liver inflammation and fibrosis.

STK17B = biological target: T1, STK17B (Homo sapiens, UniProt O94768); assay: Kinase dose response curve on STK17B; format: biochemical; conditions: FIG. 4A, read-out: half maximal inhibitory concentration (IC50) on STK17B
T1 construct: purchased Reaction Biology
T1 sequence (O94768 1-372): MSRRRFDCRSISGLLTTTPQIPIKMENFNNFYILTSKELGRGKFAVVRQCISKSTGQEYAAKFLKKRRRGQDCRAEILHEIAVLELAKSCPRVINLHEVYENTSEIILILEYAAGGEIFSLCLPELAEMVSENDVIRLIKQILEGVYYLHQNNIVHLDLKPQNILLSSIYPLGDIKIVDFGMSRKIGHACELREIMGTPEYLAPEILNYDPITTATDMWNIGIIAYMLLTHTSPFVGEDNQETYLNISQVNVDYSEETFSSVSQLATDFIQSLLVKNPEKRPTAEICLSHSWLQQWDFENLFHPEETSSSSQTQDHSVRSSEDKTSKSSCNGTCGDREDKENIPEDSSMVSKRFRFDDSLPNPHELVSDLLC
Experimental: FIGS. 4A-4B show mechanism of action of F-4N. […] Dose response curves on STK17A and STK17B show half maximal inhibitory concentration (IC50) values of ˜200 nM. […] FIG. 4A. F-4N was sent to Reaction Biology to be tested against their entire wild-type kinase panel. 1 μM F-4N was tested in an ATP competition assay against 420+ kinases. Z-scores were calculated to identify true hits over noise.

DRAK1 = biological target: T2, DRAK1 (Homo sapiens, UniProt Q9UEE5); assay: DRAK1 kinase activity assay (radiolabeled ATP, Reaction Biology); format: biochemical; conditions: FIG. 30
T2 construct: purchased Reaction Biology
T2 sequence (Q9UEE5 1-414): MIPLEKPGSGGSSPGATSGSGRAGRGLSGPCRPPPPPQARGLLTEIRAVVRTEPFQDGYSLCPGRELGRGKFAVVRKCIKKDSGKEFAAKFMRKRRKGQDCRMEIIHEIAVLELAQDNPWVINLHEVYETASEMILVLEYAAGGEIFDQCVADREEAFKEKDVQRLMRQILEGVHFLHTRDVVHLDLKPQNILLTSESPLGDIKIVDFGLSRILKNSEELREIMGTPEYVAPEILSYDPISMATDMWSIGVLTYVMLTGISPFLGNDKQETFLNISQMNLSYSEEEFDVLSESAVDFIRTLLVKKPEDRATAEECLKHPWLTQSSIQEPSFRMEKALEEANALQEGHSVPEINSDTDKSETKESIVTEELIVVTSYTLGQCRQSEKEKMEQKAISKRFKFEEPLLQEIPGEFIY
Experimental: DRAK1 kinase activity was also assessed. […] A DRAK1 kinase activity was performed by Reaction Biology. DRAK1 kinase activity was measured and plotted (FIG. 30).

[1] = tested on: mice with intratracheal bleomycin injury; assay: Acute exposure bleomycin dose-finding study; format: in vivo, mouse
Experimental: On day 1 mice received intratracheal sham or bleomycin injury. On day 7 mice were divided into groups and treated daily with vehicle, 10, 30, or 100 mg/kg F-4N by oral gavage for 7 days. On day 14 organs and plasma were collected. Weight changes were measured throughout the experiment (FIG. 24B). Whole lung RNA expression of profibrotic genes as also examined (FIG. 24C). […] F-4N efficacy biomarkers were identified. RNA was collected from vehicle treated mice and from mice treated with 30 mg/kg F-4N. RNA was analyzed using the RT2 Profiler PCR array (Qiagen Catalog No.—330231) which measures expression of 89 different cytokines and chemokines. […] A level of genes whose expression is altered in response to F-4N can be used as a biomarker for F-4N efficacy.

[2] = tested on: 10-18-month-old C57/B6 mice; assay: Non-resolving model of lung fibrosis (bleomycin, aged mice); format: in vivo, mouse
Experimental: FIG. 3. Lung fibrosis was induced in 10-18-month-old C57/B6 mice (average ˜15-months) using intratracheal bleomycin (1.1 units/kg) on day 0 of the study. On day 14 one group was administered F-4N (10 mg/kg daily i.p.) for 14 days prior to harvesting the lung for outcomes and senescence clearance and fibrosis. Lung architecture and fibrosis were observed by trichome histological staining and hydroxyproline content. Hydroxyproline content was measured using a hydroxyproline assay kit (Biovision) according to the manufacturer's instructions with slight modification. The lung tissues were weighed, homogenized in sterile water (10 mg of tissue per 100 μL H2O) and hydrolyzed in 12 M HCl in a pressure-tight, Teflon capped vial at 120° C. for 3 hours followed by filtration through a 45 μm Spin-X Centrifuge Tube filter (Corning). Ten μL of the hydrolyzed samples was dried in a Speed-Vac for 2 hours, followed by incubation with 100 μL of Chloramine T reagent for 5 minutes at room temperature and 100 μL of 4-(Dimethylamino)benzaldehyde (DMAB) for 90 minutes at 60° C. The absorbance of oxidized hydroxyproline was determined at 560 nm. Hydroxyproline concentrations were calculated from a standard curve generated using known concentrations of trans-4-hydroxyl-L-proline. The total amount of protein isolated from the weighed tissues was determined by using a protein assay kit (Bio-Rad, absorbance at 595 nm). The amount of collagen was expressed in μg/mg total protein. qPCR: RNA isolation using RNeasy Plus Mini Kit (Qiagen) according to the manufacturer's instructions. Isolated RNA (250 ng) was then used to synthesize cDNA using SuperScript VILO (Invitrogen). Quantitative PCR was performed using FastStart Essential DNA Green Master (Roche) and analyzed using a LightCycler 96 (Roche). Data are expressed as a fold change by ΔΔCt relative to glyceraldehyde-3-phosphate dehydrogenase (GAPDH).

[3] = Microsomal stability, human liver derived microsomes; format: in vitro ADME
Experimental: The microsomal stability of F-4N was also assessed (FIG. 28). Compounds were incubated with human or mouse liver derived microsomes. The percent of F-4N recovered was analyzed by LC-MS. Verapamil was used as a control for a rapidly degraded compound. Analysis was performed by Cyprotex (Framingham, MA).

[4] = 30 and 100 mg/kg daily oral gavage, 7 days
[5] = 10 mg/kg daily i.p. for 14 days
[6] = 10 mg/kg daily i.p. for 14 days, qPCR

O=c1c(O)c(-c2ccc(OCc3ccncc3)cc2)oc2ccccc12 [F—4N]
expression of fibrogenic genes in the liver (Mdr2-/- mice; oral delivery): reduced expression | liver fibrosis, especially parenchymal (bridging) fibrosis (Mdr2-/- mice; oral delivery): Improvement of liver fibrosis | tissue markers of liver inflammation and senescence (Mdr2-/- mice; oral delivery): Significant reduction | liver mass (Mdr2-/- mice; oral treatment): reduced | IC50 (STK17B): ~0.2 µM | DRAK1 kinase activity (DRAK1): can inhibit | number of genes with reduced expression (RT2 Profiler PCR array of 89 cytokines and chemokines) ([1]; 30 mg/kg, after 7 days of treatment): 11 genes | weight change [1, 4]: improved weight change | whole lung RNA expression of profibrotic genes [1, 4]: reduced expression | fibrosis and lung architecture by trichrome histological staining [2, 5]: less fibrosis and improved lung architecture | lung hydroxyproline content [2, 5]: reduced | whole lung expression of Collagen I [2, 6]: reduced expression | whole lung expression of senescence markers (Cdkn2a, Cdkn1a, Ccl2) [2, 6]: reduced expression | survival following bleomycin-induced fibrosis ([2]; 10 mg/kg daily i.p. from day 14): improved survival | microsomal stability: half-life and clearance rate [3]: in line with many clinically approved orally administered drugs

Reference: US20250368629A1, “FLAVONOID COMPOUNDS AND METHODS AND MATERIALS FOR USING FLAVONOID COMPOUNDS TO TREAT FIBROTIC CONDITIONS” (Mayo Foundation for Medical Education and Research, priority 2022, published 2025)
